Reference: US20090148850A1, “Methods for identifying modulators of P2RY14” (priority 2007, published 2009)

Columns and labels:
[1] = system: simian (chimpanzee) P2RY14; experiment: CellKey System live cell functional assay, simian P2RY14; type: cell-based; details: HEK cells expressing simian P2RY14 and Gqi5
Protocol: (§1) The Cellkey System™ (MDS Sciex), a novel, live cell, label-free, real-time technology, was used to examine P2RY14 activation following agonist stimulation. The CellKey System™ is based on cellular dielectric spectroscopy (CDS) and monitors changes in impedance of the applied electrical current through the cell monolayer upon receptor activation.
(§2) On the following day, growth medium was removed from the cell monolayer and replaced with 135 μl of HBSS pH 7.4 containing 20 mM Hepes for a 30 minutes pre-incubation period at room temperature. Baseline measurements were made for 5 minutes at 28° C. prior to ligand addition. For agonist assays, 15 μl of 10× agonist diluted in HBSS pH 7.4 containing 20 mM HEPES was added to the cell monolayer simultaneously using the 96 multichannel head from the CellKey™ System. Cellular response was monitored for 10 minutes to assess cellular response after ligand addition.

simian P2RY14 = experiment: Membrane filtration binding assay, simian P2RY14; set-up: species or system chimpanzee
Protocol: (§3) Membrane preparations were made by N2 cavitation using a Parr unit. […] Cell were Dounce homogenized (size B, 10 strokes) and then added to the cavitation unit. Pressure was adjusted to 800 psi and cells were left under pressure for 30 minutes. Broken cells were released drop by drop and spun at 1000 g for 10 minutes. Supernatent was spun at 160,000 g (rotor type 60 Ti, 40000 rpm for 30 min). Pellet was resuspended in 10 mM HEPES/KOH pH 7.4, 1 mM EDTA in ⅕ the original volume, dounce homogenized (size A, 10 strokes), aliquoted, and frozen at −80° C.
Binding assays were performed in 10 mM Hepes pH 7.4 (KOH), 5 mM MnCl2, 5 mM MgCl2 buffer. Membranes (10 μg/well for human P2RY14 and 30 μg/well for simian P2RY14) were incubated with 10 nM [5.6-^3H] Uridine 5′-triphosphate (UTP), ammonium salt from Amersham Biosciences (# TRK412) in presence of compounds diluted in DMSO (2% final in assay), in a total volume of 100 μl. 50 minutes (human P2RY14) or 60 minutes (simian) P2RY14) incubations were performed at room temperature with shaking. […] To examine the stability of [^3H]-UTP in the membrane filtration binding assay, 100 ul aliquots of the reaction mixture were extracted at 2, 10, 20, 40, 60 and 90 minutes with 100 uL of cold 80 mM EDTA solution (pH 8) and 200 uL of cold Acetonitrile. After mixing, proteins were precipitated by centrifugation at 13000 rpm for 10 minutes at 4° C. […] After 0.5 min at 10:90 50 mM KH2PO4/750 mM KH2PO4, a gradient was applied in order to increase to 100% 750 mM KH2PO4 at 5 min, after which this composition was maintained for an additional 3 min. Samples were kept at 4° C. prior to HPLC analysis

mouse P2RY14 [2] = biological target: T1, mouse P2RY14 (Mus musculus, UniProt Q9ESG6); experiment: CellKey System live cell functional assay, mouse P2RY14; type: cell-based; details: HEK cells expressing mouse P2RY14 and Gqi5
T1 construct: expressed in transfected cells
T1 sequence (Q9ESG6 1-338): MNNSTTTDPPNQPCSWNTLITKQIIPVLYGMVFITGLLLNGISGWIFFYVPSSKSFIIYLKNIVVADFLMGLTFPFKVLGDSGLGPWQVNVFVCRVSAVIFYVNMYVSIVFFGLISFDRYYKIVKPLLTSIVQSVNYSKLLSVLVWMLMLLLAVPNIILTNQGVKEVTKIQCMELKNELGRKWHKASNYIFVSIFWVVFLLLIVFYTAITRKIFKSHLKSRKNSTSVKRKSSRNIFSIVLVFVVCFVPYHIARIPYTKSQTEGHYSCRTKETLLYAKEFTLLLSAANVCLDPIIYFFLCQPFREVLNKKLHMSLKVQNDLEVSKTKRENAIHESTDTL
Protocol: as §1, §2

mouse P2RY14 [3] = biological target: T1, mouse P2RY14; experiment: FLIPR whole cell Ca2+ agonist assay, HEK cells expressing mouse P2RY14 and Gqi5; type: cell-based
From the text: (§4) Stable HEK clonal cell lines expressing P2RY14 and the chimeric G protein Gqi5 were constructed. The chimeric Gqi5 forces the coupling of P2RY14 through the Gq (calcium) pathway and allows for monitoring of calcium signaling using a calcium binding fluorescent dye and a FLIPR (fluorometric imaging plate reader, MDS Sciex). Vector pCEP4 comprising the chimeric Gqi5 was obtained from Molecular Devices, Sunnyvale, Calif. (Cat. No. RD-PGQI5).
The nucleic acid encoding the mouse P2RY14 was under the control of the CMV promoter.
(§5) Cells were grown in DMEM medium containing 25 mM HEPES, pH 7.4 and 10% FBS, 50 units/ml penicillin/50 μg/ml streptomycin, 2 mM glutamine and 1 mM sodium pyruvate at 37° C. in humidified air containing 5% CO2. Two days post-transfection, cells were grown under selection in the DMEM medium as indicated above and supplemented with 200 μg/ml Hygromycin B and 250 μg/ml geneticin.
(§6) Cells were incubated overnight at 37° C. and 5% CO2 to form a monolayer. On the following day, 30 μl of fluorescent no-wash dye was added to the cell monolayer and the plate was incubated for 60 minutes at 37° C., 5% CO2.
(§7) For agonist assays, 6.12 μl of 10× agonist solution was added to the cell/dye incubation and Ca^2+ signaling was monitored by FLIPR. For antagonist assays, 250 nl of compound in 100% DMSO was added to cell/dye mixture; following a 20 minute incubation at room temperature, 6.12 μl of 10× agonist solution at EC80 in HBSS containing 20 mM Hepes was added to cells and Ca^2+ signaling was monitored by FLIPR. Quantitation of the % stimulation or inhibition of Ca^2+ signaling by agonist or antagonist, respectively, was calculated using the Max-Min fluorescent signal detected.

rat P2YR14 receptor = biological target: T2, rat P2YR14 receptor (Rattus norvegicus, UniProt O35881); details: Fricks et al. 2007; cited from earlier work
T2 sequence (O35881 1-305): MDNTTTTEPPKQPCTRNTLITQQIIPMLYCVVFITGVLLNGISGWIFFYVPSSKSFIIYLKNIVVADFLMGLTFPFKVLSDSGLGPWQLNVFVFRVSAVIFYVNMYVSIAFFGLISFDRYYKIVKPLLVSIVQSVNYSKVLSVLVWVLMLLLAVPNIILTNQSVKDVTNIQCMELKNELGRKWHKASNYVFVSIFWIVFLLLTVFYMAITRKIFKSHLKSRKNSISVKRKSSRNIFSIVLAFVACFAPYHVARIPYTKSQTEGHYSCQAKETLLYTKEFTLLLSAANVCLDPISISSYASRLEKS

[4] = system: HEK cells not expressing P2RY14; experiment: FLIPR Ca2+ release in HEK cells not expressing P2RY14 (specificity); type: cell-based
[5] = system: simian (chimpanzee) P2RY14; experiment: FLIPR whole cell Ca2+ agonist assay, HEK cells expressing simian (chimpanzee) P2RY14 and Gqi5; type: cell-based
From the text: as §4
The simian (chimpanzee) P2RY14 nucleic acid fragment was synthesized based upon the Ensembl Gene ID ENSPTRG00000030093 by Bio S & T, Montreal, Quebec, Canada, to be flanked with KpnI and NotI restriction enzyme sites. […] The DNA fragment was digested with KpnI and NotI and then cloned into a pcDEF3 vector previously digested with KpnI and NotI to place the DNA fragment in the proper orientation downstream of the human EF-1a promoter. The nucleic acid encoding the simian P2RY14 was under the control of the human EF-1a promoter.
as §5, §6, §7

[6] = HPLC analysis of [3H]-UTP stability in the P2RY14 membrane filtration binding assay; details: 60 minute incubation
Protocol: Binding assays were performed in 10 mM Hepes pH 7.4 (KOH), 5 mM MnCl2, 5 mM MgCl2 buffer. Membranes (10 μg/well for human P2RY14 and 30 μg/well for simian P2RY14) were incubated with 10 nM [5.6-^3H] Uridine 5′-triphosphate (UTP), ammonium salt from Amersham Biosciences (# TRK412) in presence of compounds diluted in DMSO (2% final in assay), in a total volume of 100 μl. 50 minutes (human P2RY14) or 60 minutes (simian) P2RY14) incubations were performed at room temperature with shaking. […] Incubation mixtures were filtered on GF/C Packard filter membranes (#6065174) and washed with cold 10 mM Hepes/KOH buffer at pH 7.4 (2×3.7 ml) using a Tomtek Mach III harvester. GF/C filters were subsequently dried at 55° C. in a vacuum oven for 1 hour before addition of 25 μl/well Ultima Gold F scintillation fluid from Packard (#6013179) and counted in a Wallac Microbeta counter normalized for ^3H (2 min/well). Counts (ccpms) generated by non specific binding were subtracted from total counts, to give specific binding which was expressed as % of total binding and K is were calculated by data analyzer using the inflection point of the dose dependant sigmoidal curve generated for each compound. Kds for [^3H]-UTP/[^3H]-UDP in the human and simian assays were determined by Scatchard analysis and are as follow: 10.03 nM for human P2RY14 and 10.25 nM for simian P2RY14. […]

P2RY14 = biological target: T3, P2RY14 (Homo sapiens, UniProt Q15391); experiment: Membrane filtration binding assay, human P2RY14; set-up: expressed in transfected cells; details: human P2RY14 (data not shown)
T3 sequence (Q15391 1-338): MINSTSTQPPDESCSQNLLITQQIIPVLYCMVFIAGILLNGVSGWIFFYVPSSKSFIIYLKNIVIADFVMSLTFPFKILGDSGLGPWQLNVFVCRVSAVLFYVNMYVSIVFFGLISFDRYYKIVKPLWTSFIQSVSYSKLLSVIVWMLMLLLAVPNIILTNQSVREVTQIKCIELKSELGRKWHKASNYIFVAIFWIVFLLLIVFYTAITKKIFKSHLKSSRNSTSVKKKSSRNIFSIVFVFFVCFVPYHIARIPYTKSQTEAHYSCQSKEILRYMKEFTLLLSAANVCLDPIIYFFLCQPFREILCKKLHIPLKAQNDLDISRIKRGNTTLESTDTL
Protocol: as §3
Binding assays were performed in 10 mM Hepes pH 7.4 (KOH), 5 mM MnCl2, 5 mM MgCl2 buffer. Membranes (10 μg/well for human P2RY14 and 30 μg/well for simian P2RY14) were incubated with 10 nM [5.6-^3H] Uridine 5′-triphosphate (UTP), ammonium salt from Amersham Biosciences (# TRK412) in presence of compounds diluted in DMSO (2% final in assay), in a total volume of 100 μl. 50 minutes (human P2RY14) or 60 minutes (simian) P2RY14) incubations were performed at room temperature with shaking. […] To examine the stability of [^3H]-UTP in the membrane filtration binding assay, 100 ul aliquots of the reaction mixture were extracted at 2, 10, 20, 40, 60 and 90 minutes with 100 uL of cold 80 mM EDTA solution (pH 8) and 200 uL of cold Acetonitrile. After mixing, proteins were precipitated by centrifugation at 13000 rpm for 10 minutes at 4° C. […]

Compound	P2RY14 signaling (impedance, CellKey) [1]	competition for [3H]-UTP/[3H]-UDP binding (simian P2RY14; simian P2RY14 membranes)	P2RY14 signaling (impedance, CellKey) (mouse P2RY14 [2])	activation of P2RY14 (Ca2+ signaling) (mouse P2RY14 [3])	mode of action at receptor (rat P2YR14 receptor)	Ca2+ release in cells not expressing P2RY14 [4]	activation of P2RY14 (Ca2+ signaling) [5]	specific binding window as radioligand (simian P2RY14; HEK cells expressing simian P2RY14, membrane filtration)	stability of radioligand in membrane filtration binding assay [6]	time of conversion to [3H]-UDP [6]	specific binding window as radioligand (P2RY14)
O=c1ccn([C@@H]2O[C@H](COP(=O)(O)OP(=O)(O)O)[C@@H](O)[C@H]2O)c(=O)[nH]1 [UDP]	mediated signaling	able to successfully compete	mediated signaling	activated	full agonist	do not stimulate Ca^2+ release	activated				
N.N.N.N.[3H]c1c([3H])n([C@@H]2O[C@H](COP(=O)(O)OP(=O)(O)OP(=O)(O)O)[C@@H](O)[C@H]2O)c(=O)[nH]c1=O [[^3H]-UTP, [5.6-^3H] Uridine 5′-triphosphate (UTP), ammonium salt]								a specific binding window	converted predominantly to [^3H]-UDP	≤ 10 min	a specific binding window
